Counter-ions that a name gives are not always drawn.
Assay: Laboratory observation of polymorphic transformation of polymorph IV in pharmaceutical compositions
Format: physicochemical
Conditions: especially in pharmaceutical compositions; more pronounced in humid environments

COc1cc2c(cc1OC)CC(=O)N(CCCN(C)C[C@H]1Cc3cc(OC)c(OC)cc31)CC2 [ivabradine hydrochloride polymorph IV, 3-(3-{[((7S)-3,4-dimethoxybicyclo[4.2.0]octa-1,3,5-trien-7-yl)methyl]methylamino}propyl)-7,8-dimethoxy-1,3,4,5-tetrahydro-2H-3-benzazepin-2-one]
Polymorphic stability over time: transforms over time into the more stable polymorph β
